Key:
Assay type in all cases: cell-based, Human
Jurkat cells [1] = assay: Cell proliferation rate / viability of drug-treated Jurkat cells (trypan blue count); details: for cell viability: 24-hour viability observation
Description: During experiments, cells were re-suspended in phenol red-free medium (11835-063, GIBCO) in the presence or absence of a drug, either methotrexate hydrate (MTX; […], SIGMA) or 2-deoxy-D-glucose (2DG; […], SIGMA), at a density of 1×10^6 cells/ml. Cell viability was estimated by using a hemocytometer to count trypan blue-stained cells. Relative cell count, presented in FIGS. 6B and 6E-6F, is a ratio of the cell count at t=24 hours to the initial cell count.

Jurkat cells [2] = assay: pH sensing of drug-treated Jurkat cells (reductant-added medium); details: compared with the control
Text: A conversion of the modified FET into a pH sensor was achieved by using a reductant-added solution. After supplementing a culture medium with 0.1% v/v DEHA to reduce the modified FET surface, surface proton density varied by protonation or by deprotonation dominantly changes the measured current.
For pH sensing, 0.1% v/v DEHA was supplemented in the sensing medium to reduce the 9,10-anthraquinone monolayer on the FET surface to obtain 9,10-dihydroxyanthracene (see also FIG. 1d) and H2O2 simultaneously. Therefore, no significant amount of H2O2 in a DEHA-supplemented medium altered a measured signal. As a result, surface proton density, varied by protonation or by deprotonation, dominantly changes an acquired signal.

Jurkat cells [3] = assay: Extracellular ROS level of drug-treated Jurkat cells measured with the nanowire biosensor; details: t=6 hours, normalized by the number of live cells
Description: For measurements of cellular metabolites/activity, cells were cultured in the chip, namely, in the culture compartment thereof (see, for example, FIG. 1A), while placing the chip in an incubator during measurements. A sample was introduced to the sensing compartment at 20 μl min^-1 by using a syringe pump. Human T lymphocytes, Jurkat (TIB-152, ATCC), were cultured and incubated at 37° C. under a humidified 5% CO2 atmosphere. The culture medium used was RPMI 1640 medium (52400, GIBCO) with 10% fetal bovine serum (FBS; 04-001-1A, Biological Industry) and 1% penicillin/streptomycin (15140, GIBCO). During experiments, cells were re-suspended in phenol red-free medium (11835-063, GIBCO) in the presence or absence of a drug, either methotrexate hydrate (MTX; […], SIGMA) or 2-deoxy-D-glucose (2DG; […], SIGMA), at a density of 1×10^6 cells/ml. Cellular samples were dispensed into the wells of the sensing chip (see FIGS. 1A and 1B) in an incubator. 24-hour monitoring of metabolic activity of drug-treated Jurkat cells by measuring extracellular ROS levels using the nanowire biosensor, was performed and the obtained data is presented in FIGS. 6A-G. Measured ROS levels were normalized by the number of live cells.

Jurkat cells [4] = assay: Extracellular lactate level of drug-treated Jurkat cells (lactate oxidase, nanowire biosensor); details: after 24 hours
Description: For lactate sensing, 0.1 unit/ml of lactate oxidase (LOX; L0638, SIGMA) was added in phenol red-free medium to convert lactate to pyruvate and H2O2 before lactate reaches the FET array (as depicted in FIG. 1D).
During experiments, cells were re-suspended in phenol red-free medium (11835-063, GIBCO) in the presence or absence of a drug, either methotrexate hydrate (MTX; M8407, SIGMA) or 2-deoxy-D-glucose (2DG; D6134, SIGMA), at a density of 1×10^6 cells/ml.
The correlation between extracellular lactate level of 2DG-treated Jurkat cells and a resultant cell proliferation rate after 24 hours was investigated.

Compound | cell viability (Jurkat cells [1]) | cell proliferation rate (Jurkat cells [1]; after 24 hours, relative cell count) | pH of cultured cells (Jurkat cells [2]) | ROS level (Jurkat cells [3]) | cellular lactate secretion (Jurkat cells [4])
O=CC[C@@H](O)[C@H](O)[C@H](O)CO [2DG, 2-deoxy-D-glucose] | anti-proliferative activity | reduced proliferation rate | more basic than the control | noticeable decrease | decreased
CN(Cc1cnc2nc(N)nc(N)c2n1)c1ccc(C(=O)N[C@@H](CCC(=O)O)C(=O)O)cc1 [MTX, methotrexate hydrate] | anti-proliferative activity | – | – | noticeable decrease | –

— patent US10274456B2, “Method and system for sensing” (Ramot at Tel-Aviv University Ltd., priority 2013, dated 2019)
